Laboratory results as given in ChEMBL document CHEMBL5523684, “Development of a tetrahydroindazolone-based HDAC6 inhibitor with in-vivo anti-arthritic activity” (Bioorg Med Chem, 2024).
Activity calls are given as the source filed them. The rule behind the calls is not given here.

Tests used:
[1] = AUC (0 to infinity) in mouse at 50 mg/kg, po; assay type: ADME, organism-based; conditions: in vivo
[2] = Tmax in monkey at 10 mg/kg, po; assay type: ADME, organism-based, Macaca mulatta; conditions: rhesus monkey, in vivo
Rattus norvegicus [3] = assay: Antiarthritic activity against adjuvant-induced arthritis Lewis rat model at 50 mg/kg, po measured after 8 days; assay type: functional, organism-based; conditions: time 8.0 day
Rattus norvegicus [4] = assay: Antiarthritic activity against adjuvant-induced arthritis Lewis rat model assessed as improvement in arthritis symptoms at 50 mg/kg, po measured after 8 days; assay type: functional; conditions: time 8 day
[5] = AUC (0 to infinity) in dog at 0.5 mg/kg, iv; assay type: ADME, organism-based, Canis lupus familiaris; conditions: in vivo
[6] = Half life in monkey at 10 mg/kg, po; assay type: ADME, organism-based, Macaca mulatta; conditions: rhesus monkey, in vivo
[7] = AUClast in monkey at 10 mg/kg, po; assay type: ADME, organism-based, Macaca mulatta; conditions: rhesus monkey, in vivo
[8] = Cmax in dog at 5 mg/kg, po; assay type: ADME, organism-based, Canis lupus familiaris; conditions: in vivo

CC1(C)CC(=O)c2c(C(F)(F)F)nn(Cc3ccc(C(=O)NO)cc3)c2C1
AUC(0-inf) [1]: 1150 ng·h/mL | Tmax [2]: 2 h | Activity (Rattus norvegicus [3]): Active | Activity (Rattus norvegicus [4]): 59.6% | AUC(0-inf) [5]: 458 ng·h/mL | half-life [6]: 0.95 h | AUC(0-t) [7]: 332 ng·h/mL | Cmax [8]: 1030 ng/mL
